Test results taken from ChEMBL document CHEMBL1158882, “Yardenone A and B: new cytotoxic triterpenes from the Indian Ocean sponge Axinella cf. bidderi” (J Nat Prod, 2003).
Calls of active or inactive are those of the source. The rule behind the calls is not given here.

What was measured:
[1] = (§1) Cytotoxicity against human NSCLC-N6-L16 cells; type: functional, cell-based
Homo sapiens = species on record: Homo sapiens; assay: as §1; type: functional, cell-based

`C[C@H]1CC[C@@H]2OC(C)(C)[C@H](O)CC[C@@]2(C)[C@]12C[C@H](O)[C@@H]([C@@]1(C)CC[C@@H]3OC(C)(C)C(=O)CC[C@]31C)O2` [YARDENONE B] showed an IC50 [1] of over 31 µM.

For `CC1=C(CC[C@H]2[C@]3(C)CCC(=O)C(C)(C)O[C@H]3CC[C@]2(C)O)[C@@]2(C)CCC(=O)C(C)(C)C2=C(O)C1=O` [SODWANONE A], the IC50 [1] was 12 µM.

With `C[C@H]1CC[C@@H]2OC(C)(C)C(=O)CC[C@@]2(C)[C@]12CC[C@@H]([C@@]1(C)CC[C@@H]3OC(C)(C)C(=O)CC[C@]31C)O2` the Activity (Homo sapiens) was “inactive”.

For `C[C@H]1CC[C@@H]2OC(C)(C)C(=O)CC[C@@]2(C)[C@]12C[C@H](O)[C@@H]([C@@]1(C)CC[C@@H]3OC(C)(C)C(=O)CC[C@]31C)O2` [YARDENONE A], the IC50 [1] was over 60 µM.
